Data: article PMC6213020, “Identification of a Novel PPAR-γ Agonist through a Scaffold Tuning Approach” (International Journal of Molecular Sciences, 2018)

Columns and labels:
db/db mice = test system: db/db mice; design: method as in PMID 21482466, PMID 23265886, PMID 25982078; conditions: cited from earlier work
PPAR-α = target: T1, PPAR-α (Homo sapiens, UniProt Q07869); assay: cell-based PPAR transactivation (luciferase) assay, PPAR-α; conditions: 24 h; compounds 10 µM; relative to maximum activation with GW7647 (10 µM); PPAR-Luc in CV-1 cells; read-out: % max PPAR-α
T1 construct: host or cells: CV-1
T1 sequence (Q07869 1-468): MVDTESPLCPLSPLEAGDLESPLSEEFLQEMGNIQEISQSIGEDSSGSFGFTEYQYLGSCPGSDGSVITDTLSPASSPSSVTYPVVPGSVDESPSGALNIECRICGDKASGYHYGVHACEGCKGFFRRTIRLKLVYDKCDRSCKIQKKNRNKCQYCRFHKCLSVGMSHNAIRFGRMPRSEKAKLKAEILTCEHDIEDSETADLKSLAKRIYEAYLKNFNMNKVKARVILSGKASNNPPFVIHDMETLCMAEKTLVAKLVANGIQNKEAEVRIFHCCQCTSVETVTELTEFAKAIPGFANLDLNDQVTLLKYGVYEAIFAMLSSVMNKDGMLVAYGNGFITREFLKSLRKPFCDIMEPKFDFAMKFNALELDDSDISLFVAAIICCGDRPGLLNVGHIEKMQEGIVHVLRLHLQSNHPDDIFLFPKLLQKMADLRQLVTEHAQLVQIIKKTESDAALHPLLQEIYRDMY
Description: (§1) The PPAR activities of the synthesized dichloroanilide-linked indole analogs were assessed using a standard cell-based transactivation assay in CV-1 cells. GW7647 [42], pioglitazone, and GW0742 [43] were used as positive controls for PPAR-α, -γ, and -δ, respectively. These three positive controls presented the maximum activation for each PPAR subtype. The activity of the compounds was presented as the activation percentage (%) relative to the maximum values of the positive controls at the indicated concentrations.
(§2) Transient transfection and luciferase assay was carried out. CV-1 cells were seeded in 48-well plates at a density of 1.5 × 10^5 cells/well in Dulbecco’s modified Eagle’s medium (DMEM) with containing 10% fetal bovine serum (FBS). The cells were transiently transfected with plasmid mixtures containing PPAR-α/γ expression vector and tk-PPRE-luciferase (Luc) vector for 6 h and then treated with the samples for 24 h. HEK293t cells were seeded in a 60-mm dish at a density of 1.5 × 10^6 cells/dish. After transfection with the plasmid mixtures containing PPAR-δ expression vector and Luc vector for 6 h, the cells were transferred to a 96-well plate and treated with the samples. To normalize the transfection efficiency, a β-galactosidase plasmid was cotransfected. The luciferase activity in the cell lysates was measured using a luciferase assay system (Promega Corp., Madison, WI, USA), and the β-galactosidase activity was determined by measuring the absorbance at 410 nm using an ELISA plate reader. The data were expressed as the relative luciferase activity divided by the β-galactosidase activity. All constructs were kindly gifted by Dr. Ronald M. Evans at The Salk Institute (La Jolla, CA, USA).

PPAR-δ = target: T2, PPAR-δ (Homo sapiens, UniProt Q03181); assay: cell-based PPAR transactivation (luciferase) assay, PPAR-δ; conditions: compounds 10 µM; relative to maximum activation with GW0742 (10 μM); PPAR-Luc in HEK293t cells; read-out: % max PPAR-δ
T2 construct: host or cells: HEK293t
T2 sequence (Q03181 1-441): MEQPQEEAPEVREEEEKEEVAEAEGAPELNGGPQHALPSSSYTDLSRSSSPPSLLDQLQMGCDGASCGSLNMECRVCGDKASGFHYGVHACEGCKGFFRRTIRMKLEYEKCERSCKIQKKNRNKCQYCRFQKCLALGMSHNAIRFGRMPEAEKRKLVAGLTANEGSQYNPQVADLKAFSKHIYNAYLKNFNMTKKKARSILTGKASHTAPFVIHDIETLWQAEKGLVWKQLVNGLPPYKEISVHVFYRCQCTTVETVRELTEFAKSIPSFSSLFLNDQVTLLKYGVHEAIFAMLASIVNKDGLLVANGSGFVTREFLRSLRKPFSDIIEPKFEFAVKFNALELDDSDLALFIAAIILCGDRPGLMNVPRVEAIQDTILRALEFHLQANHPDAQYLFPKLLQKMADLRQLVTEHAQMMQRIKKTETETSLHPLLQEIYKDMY
Description: as §1, §2

PPAR-γ = target: T3, PPAR-γ (Homo sapiens, UniProt P37231); assay: cell-based PPAR transactivation (luciferase) assay, PPAR-γ; conditions: for activation at 10 µM: 24 h, compounds 10 µM, relative to maximum activation with pioglitazone (10 µM), PPAR-Luc in CV-1 cells, read-out: % max PPAR-γ; for agonistic activity to PPARs, in words: transactivation assay, all PPAR subtypes
T3 construct: host or cells: CV-1
T3 sequence (P37231 1-505): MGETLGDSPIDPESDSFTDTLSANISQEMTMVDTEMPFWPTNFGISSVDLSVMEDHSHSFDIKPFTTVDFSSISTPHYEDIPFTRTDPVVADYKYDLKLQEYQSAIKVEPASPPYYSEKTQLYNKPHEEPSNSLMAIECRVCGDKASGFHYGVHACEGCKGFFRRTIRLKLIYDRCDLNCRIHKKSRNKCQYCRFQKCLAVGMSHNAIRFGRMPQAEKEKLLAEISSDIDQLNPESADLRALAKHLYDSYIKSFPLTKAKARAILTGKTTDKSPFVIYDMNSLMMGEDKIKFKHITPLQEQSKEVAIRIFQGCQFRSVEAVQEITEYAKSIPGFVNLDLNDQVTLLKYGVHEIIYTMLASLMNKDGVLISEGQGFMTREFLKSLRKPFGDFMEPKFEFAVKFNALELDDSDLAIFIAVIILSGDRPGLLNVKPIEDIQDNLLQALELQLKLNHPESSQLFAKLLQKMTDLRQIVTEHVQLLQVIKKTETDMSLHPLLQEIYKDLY
Description: as §1, §2

SMILES | accumulation of lipids and size of the adipocytes (db/db mice) | blood glucose level (db/db mice) | glycated hemoglobin (HbA1c) level (db/db mice) | insulin level (db/db mice) | weight gain (db/db mice) | activation at 10 µM (PPAR-α) [%] | activation at 10 µM (PPAR-δ) [%] | activation at 10 µM (PPAR-γ) [%] | agonistic activity to PPARs, in words (PPAR-γ)
O=C(O)Cc1cn(Cc2ccccc2)c2ccc(OCCCOc3cccc(OCc4ccc(Cl)cc4)c3)cc12 [Compound 2] | reduced | lowered | lowered | lowered | without causing weight gain | – | – | – | –
O=C(O)Cc1c[nH]c2ccc(OCC(=O)Nc3ccc(Cl)cc3Cl)cc12 [Compound 5, 2-(5-(2-((2,4-Dichlorophenyl)amino)-2-oxoethoxy)-1H-indol-3-yl)acetic acid] | – | – | – | – | – | -38.13 ± 0.06 | 11.8 ± 0.35 | 5.6 ± 0.14 | minimum agonistic activities
O=C(O)Cc1c[nH]c2cc(OCC(=O)Nc3ccc(Cl)cc3Cl)ccc12 [Compound 6, 2-(6-(2-((2,4-Dichlorophenyl)amino)-2-oxoethoxy)-1H-indol-3-yl)acetic acid] | – | – | – | – | – | 1.12 ± 0.24 | 8.27 ± 0.33 | 8.66 ± 0.23 | minimum agonistic activities
O=C(O)Cc1cn(Cc2ccccc2)c2ccc(OCC(=O)Nc3ccc(Cl)cc3Cl)cc12 [Compound 7, 2-(1-Benzyl-5-(2-((2,4-dichlorophenyl)amino)-2-oxoethoxy)-1H-indol-3-yl)acetic acid] | – | – | – | – | – | 21.41 ± 0.21 | 44.4 ± 0.77 | 31.2 ± 0.38 | –
O=C(O)Cc1cn(Cc2ccccc2)c2cc(OCC(=O)Nc3ccc(Cl)cc3Cl)ccc12 [Compound 8, 2-(1-Benzyl-6-(2-((2,4-dichlorophenyl)amino)-2-oxoethoxy)-1H-indol-3-yl)acetic acid] | – | – | – | – | – | 31.68 ± 0.22 | 65.4 ± 0.7 | 71.9 ± 0.91 | –
O=C(COc1ccc2c(ccn2Cc2cccc(C(=O)O)c2)c1)Nc1ccc(Cl)cc1Cl [Compound 14, 3-((5-(2-((2,4-Dichlorophenyl)amino)-2-oxoethoxy)-1H-indol-1-yl)methyl)benzoic acid] | – | – | – | – | – | 10.33 ± 0.07 | 23.9 ± 0.51 | 42 ± 0.52 | –
O=C(COc1ccc2c(ccn2Cc2ccc(C(=O)O)cc2)c1)Nc1ccc(Cl)cc1Cl [Compound 16, 4-((5-(2-((2,4-Dichlorophenyl)amino)-2-oxoethoxy)-1H-indol-1-yl)methyl)benzoic acid] | – | – | – | – | – | -19.98 ± 0.08 | -1.07 ± 0.14 | 0.29 ± 0.06 | –
O=C(COc1ccc2ccn(Cc3ccc(C(=O)O)cc3)c2c1)Nc1ccc(Cl)cc1Cl [Compound 17, 4-((6-(2-((2,4-Dichlorophenyl)amino)-2-oxoethoxy)-1H-indol-1-yl)methyl)benzoic acid] | – | – | – | – | – | -14.4 ± 0.16 | 4.87 ± 0.24 | -0.84 ± 0.16 | –
O=C(COc1ccc2c(Cc3ccccc3)cn(Cc3ccccc3C(=O)O)c2c1)Nc1ccc(Cl)cc1Cl [Compound 19, 2-((3-Benzyl-6-(2-((2,4-dichlorophenyl)amino)-2-oxoethoxy)-1H-indol-1-yl)methyl)benzoic acid] | – | – | – | – | – | 7.25 ± 0.12 | 19.4 ± 0.54 | 19.03 ± 0.13 | –
CC(C)=CCc1cn(Cc2ccccc2C(=O)O)c2ccc(OCC(=O)Nc3ccc(Cl)cc3Cl)cc12 [Compound 20, 2-((5-(2-((2,4-Dichlorophenyl)amino)-2-oxoethoxy)-3-(3-methylbut-2-en-1-yl)-1H-indol-1-yl)methyl)benzoic acid] | – | – | – | – | – | -5.93 ± 0.14 | 8.92 ± 0.48 | 5.1 ± 0.2 | –
CC(C)=CCc1cn(Cc2ccccc2C(=O)O)c2cc(OCC(=O)Nc3ccc(Cl)cc3Cl)ccc12 [Compound 21, 2-((6-(2-((2,4-Dichlorophenyl)amino)-2-oxoethoxy)-3-(3-methylbut-2-en-1-yl)-1H-indol-1-yl)methyl)benzoic acid] | – | – | – | – | – | -2.3 ± 0.19 | 22.2 ± 0.59 | 9.55 ± 0.32 | –
